Test results as given in patent US9801922B2, “Compositions and methods of treating cancer” (UNIVERSITY OF IOWA RESEARCH FOUNDATION, priority 2011, dated 2017).

Tests used:
Sum159 xenograft tumors = assay: ALDH+ cells in Sum159 xenografts in vivo; set-up: species or system nude mice; conditions: 100 μM DTPP in drinking water 2 weeks; BSO 675 mg/kg i.p.; Au 2.7 mg/kg i.p.
Protocol: FIGS. 1A-D: BSO, DTPP and AUR treated SUM159, MDA-MB231 and HMEC Clonogenic survival. In Panel A (SUM 159), B (MDA-MB231) and C(HMEC), 150,000 cells/dish SUM159 or MDA-MB231 and 300,000 cells/dish were plated in 60 mm tissue culture dishes. After 48 hours, cells were given fresh complete HMECs media and treated with 100 μM BSO+/1 μM DTPP for 24 hours. 500 nM AUR were added 15 mins before the trypsinization of cells for clonogenic survival assay. In panel A-C, The error bars represent mean±1 SD of n=1 treatment dishes done in 3 separate experiments where each treatment dish was used to prepare 6-10 replicate cloning dishes for analysis. *p<0.001 as compared to Control. […] Mice growing Sum159 xenograft tumors were treated with 100 μM DTPP in drinking water for 2 weeks followed by i.p. injections of BSO 675 mg/kg followed in 2 hrs with Au 2.7 mg/kg. The day following injections tumors were harvested, digested and stained for ALDH positive cells. Each bar represents an average of at least three tumors. Error bars are SEM. *p<0.05 vs. control.
To address this question, SUM159 were treated with these drugs as described in FIG. 1, and aldehyde dehydrogenase (ALDH) activity, a marker of cancer stem cells was examined by ALDEFLUOR assay. […]

[1] = system: Human thioredoxin-1 (hTrx-1); assay: Thioredoxin native redox western blot; type: cell-based; conditions: SUM159
Protocol: FIG. 7: Human thioredoxin-1 (hTrx-1) native redox western blot analysis of BSO, DTPP and AUR treated SUM159. Asynchronously growing cultures of SUM159 were plated and treated as described in FIG. 1. Cells were harvested and scraped in PBS at 4° C. Whole cell homogenates were used for native gel redox western blot analysis of […].
Thioredoxin Redox Western: The human thioredoxin-1 protein level was determined by Thioredoxin redox western. Approximately 2-3 million treated or untreated SUM159 cells were lysed in G-lysis buffer (50 mM Tris-HCl, pH 8.3, 3 mM EDTA, 6 M guanidine-HCl, 0.5% Triton X-100) containing 50 mM iodoacetic acid (pH 8.3). The lysate was incubated in the dark for thirty minutes. The lysates were then centrifuged in G-25 microspin columns (GE Healthcare). Protein was then quantified, from the eluent by performing a Bradford protein assay, as previously described (Bradford, M. M. A rapid and sensitive method for the quantitation of microgram quantities of protein utilizing the principle of protein-dye binding. Anal Biochem 72:248-254; 1976). Equal amounts of protein were then added to a 15% acrylamide native gel. The gel was then run at 100 V for approximately 1.5 h. The proteins contained in the gel were then transferred to a nitrocellulose membrane (BIORAD Labs), using a semi-dry transfer protocol. The nitrocellose membrane was then washed in PBST (Phosphate buffered saline with 0.1% Tween) before being incubated at 4 overnight with the primary antibody, 1:1000 goat anti-hTrx-1 (American Diagnostica, Inc.) in PBST with 2% BSA. […]

HMECs = assay: CDCFH2 / CDCF probe labeling (intracellular hydroperoxides), HMEC; type: cell-based, human; conditions: oxidation-insensitive probe
Protocol: (§1) FIGS. 5A-5D: CDCFH2 oxidation sensitive and CDCF oxidation insensitive probe labeling of BSO, DTPP, and AUR exposed SUM159 and HMECs cells. Asynchronously growing cultures of SUM159 (Panels A, B) and HMECs (Panes C, D) were plated and treated as described in FIG. 1. Monolayer cultures were harvested and trypsinized, washed once with PBS then labeled in PBS with either CDCFH2 (Panesl A, C) or CDCF (Panels B, D)(10 μg/mL, in 0.1% DMSO 15 minutes) at 37° C. Mean fluorescence intensity (MFI) of 10,000 cells was analyzed by flow cytometry. Samples were assayed in triplicate; Mean±1 SEM of 3 separate experiments containing 3 treatment dishes per group (n=9), *p<0.001 as compared to Control.
(§2) Measurement of Intracellular Hydroperoxides: Steady-state levels of hydroperoxides were estimated using the oxidation sensitive {5-(and-6)-carboxy-2′,7′-dichlorodihydrofluorescein diacetate, (CDCFH2)} and oxidation-insensitive {5-(and-6)-carboxy-2′,7′-dichlorofluorescein diacetate, (CDCF)} fluorescent dyes purchased from Molecular Probes. Cells were plated and treated with BSO, DTPP and AUR as described above. […] Samples were analyzed using a FACScan flowcytometer (Becton Dickinson Immuno-cytometry System, INC., Mountain View, Calif.) (excitation 488 nm, emission 530 nm band-pass filter). The MFI of 10,000 cells was analyzed in each sample and corrected for autofluorescence from unlabeled cells. […]

SUM159 cells = assay: CDCFH2 / CDCF probe labeling (intracellular hydroperoxides), SUM159; type: cell-based, human; conditions: oxidation-sensitive probe
Protocol: as §1
FIG. 9: Catalase inhibitable CDCFH2 oxidation in BSO, DTPP, and AUR exposed SUM159 cells. […] Mean fluorescence intensity (MFI) of 10,000 cells was analyzed by flow cytometry. […]
as §2, with “Probes.” for “Probes. Cells were plated and treated with BSO, DTPP and AUR as described above.”, “filter).” for “filter). The MFI of 10,000 cells was analyzed in each sample and corrected for autofluorescence from unlabeled cells.”

A375 melanoma cells = assay: MTT survival fraction analysis, A375; type: cell-based

SMILES	effect on ALDH positive cells in xenografts, in words (Sum159 xenograft tumors)	increase of ratio of oxidized thioredoxin to total thioredoxin compared to control [1]	increase of the ratio of oxidized Trx-1 to reduced Trx-1 ([1]; 15 min AUR)	ratio of oxidized thioredoxin to total thioredoxin, in words [1]	CDCF labeling signal relative to control (HMECs)	increase in CDCFH2 oxidation compared to control (SUM159 cells)	cytotoxicity in the absence of BSO, in words (A375 melanoma cells)
CC[PH](CC)(CC)[Au][S][C@@H]1O[C@H](COC(C)=O)[C@@H](OC(C)=O)[C@H](OC(C)=O)[C@H]1OC(C)=O [AUR, S-triethylphosphinegold(I)-2,3,4,6-tetra-O-acetyl-1-thio-β-D-glucopyranoside]	decrease of ALDH+cells	around 2 fold	2 fold	–	–	–	–
CCCCS(=N)(=O)CCC(N)C(=O)O [BSO, L-buthionine-[S,R]-sulfoximine, reference compound]	decrease of ALDH+cells	–	–	no ratio change	–	–	–
CCCCCCCCCC[P+](c1ccccc1)(c1ccccc1)c1ccccc1 [DTPP, Decyl-Triphenylphosphonium]	–	–	–	–	2 fold	2 fold	intermediate cytotoxicity
